Data from the supplement of paper PMC10307832.

Assays:
Dactolisib + Dasatinib = compound: Cn1c(=O)n(-c2ccc(C(C)(C)C#N)cc2)c2c3cc(-c4cnc5ccccc5c4)ccc3ncc21 [Dactolisib] + Cc1nc(Nc2ncc(C(=O)Nc3c(C)cccc3Cl)s2)cc(N2CCN(CCO)CC2)n1 [Dasatinib] (partner 0.075 µM); test: relative viability (nuclei count vs DMSO), 5 days (fraction); higher = more cells survive
In short: (§1)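 The day after seeding in 1536-well plates, lung cancer cell lines were treated by pin tool with a single drug, or with a fixed anchor-drug dose together with five library-drug doses (not always all listed) in √10 steps. After 5 days, a combined fix-and-stain solution (final 0.05% Triton X-100, 1% formaldehyde, 1 ug/ml Hoechst) was added. Nuclei counted on 4× images gave relative viability as treated counts over vehicle counts, reported as the median of duplicate plates.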

AZ505 + Trametinib = compound: C1CCC(CC1)N(CCNCCC2=C3C(=C(C=C2)O)NC(=O)CO3)C(=O)CCNCCC4=CC(=C(C=C4)Cl)Cl [AZ505] + CC(=O)Nc1cccc(-n2c(=O)n(C3CC3)c(=O)c3c(Nc4ccc(I)cc4F)n(C)c(=O)c(C)c32)c1 [Trametinib] (partner 0.02 µM); test: as above
In short: as §1

## HOP-62
Dactolisib + Dasatinib; first compound 0.002 µM
  relative viability: 0.637
Dactolisib + Dasatinib; first compound 0.006325 µM
  relative viability: 0.578
Dactolisib + Dasatinib; first compound 0.02 µM
  relative viability: 0.625
Dactolisib + Dasatinib; first compound 0.06325 µM
  relative viability: 0.349
Dactolisib + Dasatinib; first compound 0.2 µM
  relative viability: 0.277
AZ505 + Trametinib; first compound 0.08 µM
  relative viability: 0.371
AZ505 + Trametinib; first compound 0.253 µM
  relative viability: 0.326
AZ505 + Trametinib; first compound 0.8 µM
  relative viability: 0.333
AZ505 + Trametinib; first compound 2.53 µM
  relative viability: 0.382
AZ505 + Trametinib; first compound 8 µM
  relative viability: 0.32

## CAL-12T
Dactolisib + Dasatinib; first compound 0.002 µM
  relative viability: 0.456
Dactolisib + Dasatinib; first compound 0.006325 µM
  relative viability: 0.35
Dactolisib + Dasatinib; first compound 0.02 µM
  relative viability: 0.252
Dactolisib + Dasatinib; first compound 0.06325 µM
  relative viability: 0.172
Dactolisib + Dasatinib; first compound 0.2 µM
  relative viability: 0.108
AZ505 + Trametinib; first compound 0.08 µM
  relative viability: 0.335
AZ505 + Trametinib; first compound 0.253 µM
  relative viability: 0.414
AZ505 + Trametinib; first compound 0.8 µM
  relative viability: 0.312
AZ505 + Trametinib; first compound 2.53 µM
  relative viability: 0.36
AZ505 + Trametinib; first compound 8 µM
  relative viability: 0.337

## NCI-H520
Dactolisib + Dasatinib; first compound 0.002 µM
  relative viability: 0.182
Dactolisib + Dasatinib; first compound 0.006325 µM
  relative viability: 0.177
Dactolisib + Dasatinib; first compound 0.02 µM
  relative viability: 0.149
Dactolisib + Dasatinib; first compound 0.06325 µM
  relative viability: 0.122
Dactolisib + Dasatinib; first compound 0.2 µM
  relative viability: 0.17
AZ505 + Trametinib; first compound 0.08 µM
  relative viability: 0.766
AZ505 + Trametinib; first compound 0.253 µM
  relative viability: 0.638
AZ505 + Trametinib; first compound 0.8 µM
  relative viability: 0.661
AZ505 + Trametinib; first compound 2.53 µM
  relative viability: 0.639
AZ505 + Trametinib; first compound 8 µM
  relative viability: 0.699

## NCI-H1755
Dactolisib + Dasatinib; first compound 0.002 µM
  relative viability: 0.392
Dactolisib + Dasatinib; first compound 0.006325 µM
  relative viability: 0.401
Dactolisib + Dasatinib; first compound 0.02 µM
  relative viability: 0.379
Dactolisib + Dasatinib; first compound 0.06325 µM
  relative viability: 0.412
Dactolisib + Dasatinib; first compound 0.2 µM
  relative viability: 0.278
AZ505 + Trametinib; first compound 0.08 µM
  relative viability: 0.728
AZ505 + Trametinib; first compound 0.253 µM
  relative viability: 0.785
AZ505 + Trametinib; first compound 0.8 µM
  relative viability: 0.749
AZ505 + Trametinib; first compound 2.53 µM
  relative viability: 0.741
AZ505 + Trametinib; first compound 8 µM
  relative viability: 0.746

## NCI-H2023
Dactolisib + Dasatinib; first compound 0.002 µM
  relative viability: 0.487
Dactolisib + Dasatinib; first compound 0.006325 µM
  relative viability: 0.454
Dactolisib + Dasatinib; first compound 0.02 µM
  relative viability: 0.376
Dactolisib + Dasatinib; first compound 0.06325 µM
  relative viability: 0.0921
Dactolisib + Dasatinib; first compound 0.2 µM
  relative viability: 0.0851
AZ505 + Trametinib; first compound 0.08 µM
  relative viability: 0.576
AZ505 + Trametinib; first compound 0.253 µM
  relative viability: 0.548
AZ505 + Trametinib; first compound 0.8 µM
  relative viability: 0.525
AZ505 + Trametinib; first compound 2.53 µM
  relative viability: 0.682
AZ505 + Trametinib; first compound 8 µM
  relative viability: 0.569

## NCI-H2009
Dactolisib + Dasatinib; first compound 0.002 µM
  relative viability: 0.3
Dactolisib + Dasatinib; first compound 0.006325 µM
  relative viability: 0.283
Dactolisib + Dasatinib; first compound 0.02 µM
  relative viability: 0.291
Dactolisib + Dasatinib; first compound 0.06325 µM
  relative viability: 0.194
Dactolisib + Dasatinib; first compound 0.2 µM
  relative viability: 0.154
AZ505 + Trametinib; first compound 0.08 µM
  relative viability: 0.247
AZ505 + Trametinib; first compound 0.253 µM
  relative viability: 0.262
AZ505 + Trametinib; first compound 0.8 µM
  relative viability: 0.233
AZ505 + Trametinib; first compound 2.53 µM
  relative viability: 0.276
AZ505 + Trametinib; first compound 8 µM
  relative viability: 0.287
